In US20120003183A1, “ADDITION SALTS OF TROMETHAMINE WITH AZABIPHENYLAMINOBENZOIC ACID DERIVATIVES AS DHODH INHIBITORS” (priority 2009, published 2012):
Counter-ions that a name gives are not always drawn.

How the values were obtained:
Type in all cases: physicochemical
Water-solubility test = conditions: for Water Solubility @ 25° C. (mg/mL as acid): 25° C. (room temperature)
Protocol: The solubility of the of Examples 1-3 in water at room temperature was determined together with the solubility of the corresponding free acids.

[1] = Differential scanning calorimetry (DSC) thermogram, stability; conditions: heated 30 to 350° C. at 10° C./min; result in words
Protocol: The differential scanning calorimetry (DSC) thermograms analyses were obtained using a DSC-821 Mettler-Toledo instrument, serial number 5117423874. Samples were weighed into an aluminium pan, an aluminium lid placed on top of the sample and compressed with a brass rod. Samples were equilibrated at 30° C. and heated at 10° C./min to 350° C. The instrument was calibrated using indium and zinc standards.

[2] = Dynamic Vapour Sorption (DVS) moisture sorption/desorption; conditions: for Mass increase at 80% relative humidity (DVS): 80% RH; for Mass increase at 90% relative humidity (DVS): 90% RH; for Hygroscopicity / Hysteresis in DVS sorption/desorption: result in words
Protocol: Dynamic Vapour Sorption (DVS) profiles were obtained using an Igasorp Hiden Isochema instrument (serial number IGA-SA-066). After an initial stabilization period, at least two isotherms (at 25° C.) were obtained for each sample: a moisture sorption from 0 to 95% relative humidity and moisture desorption from 95% relative humidity to dryness. Both isotherms were performed in 10% humidity steps, with a minimum time of 10 minutes and a maximum time of 30 minutes for each step.

Row | Structure (SMILES) | Water Solubility @ 25° C. (mg/mL as acid) (Water-solubility test) | Stability (polymorph conversion / decomposition) from DSC thermogram [1] | Mass increase at 80% relative humidity (DVS) ([2]; 25° C.) [%] | Mass increase at 90% relative humidity (DVS) ([2]; 25° C.) [%] | Hygroscopicity [2] | Hysteresis in DVS sorption/desorption [2] | Solubility in water compared with the corresponding free acids (Water-solubility test; result in words) | Mass increase at 95% relative humidity (DVS) ([2]; 95% RH, 25° C.) [%]
1 | O=C(O)c1cc(C2CC2)ccc1Nc1cnc(-c2ccccc2C(F)(F)F)nc1 [Example C2, 5-cyclopropyl-2-{[2-(2-(trifluoromethyl)phenyl)pyrimidin-5-yl]amino}benzoic acid, reference compound] | 0.003 | – | – | – | – | – | – | –
2 | Cc1ccc(Nc2ccc(-c3cccc(F)c3F)nc2)c(C(=O)O)c1 [Example C3, 5-methyl-2-{[6-(2,3-difluorophenyl)pyridin-3-yl]amino}benzoic acid, reference compound] | 0.007 | – | – | – | – | – | – | –
3 | Cc1ccc(Nc2ccc(-c3cccc(F)c3F)nc2)c(C(=O)O)c1 [Example 3, 5-methyl-2-{[6-(2,3-difluorophenyl)pyridin-3-yl]amino}benzoic acid, tromethamine salt] | 0.540 | high stability | 1.8 | 5.1 | not hygroscopic | no hysteresis | – | –
4 | O=C(O)c1cc(C2CC2)ccc1Nc1cnc(-c2c(F)cccc2F)nc1 [Example 1, 5-cyclopropyl-2-{[2-(2,6-difluorophenyl)pyrimidin-5-yl]amino}benzoic acid, tromethamine salt] | 1.780 | high stability | 1.2 | 6.1 | not hygroscopic | no hysteresis | Particularly good results | –
5 | O=C(O)c1cc(C2CC2)ccc1Nc1cnc(-c2c(F)cccc2F)nc1 [Example C1, 5-cyclopropyl-2-{[2-(2,6-difluorophenyl)pyrimidin-5-yl]amino}benzoic acid, reference compound] | 0.030 | – | – | – | – | – | – | –
6 | O=C(O)c1cc(C2CC2)ccc1Nc1cnc(-c2ccccc2C(F)(F)F)nc1 [Example 2, 5-cyclopropyl-2-{[2-(2-(trifluoromethyl)phenyl)pyrimidin-5-yl]amino}benzoic acid, tromethamine salt] | 0.139 | high stability | 3.4 | – | slightly hygroscopic | no hysteresis | – | 7.0
